Patent US11053226B2, “KRAS G12C inhibitors and methods of using the same” (Amgen Inc., priority 2018, dated 2021)
Where two headings read alike, the source gives them in different places.

Key:
[1] = target: GDP-bound KRAS protein (aa 1-169), containing both G12C and C118A amino acid substitutions (Homo sapiens (Human), UniProt P01116, C118A/G12C); test: Coupled Nucleotide Exchange Assay; format: biochemical
Experimental: For compounds in Table 9, the following assay conditions were employed:
Coupled Nucleotide Exchange Assay:
The assay plates were then read on a PerkinElmer EnVision Multilabel Reader, using AlphaScreen® technology, and data were analyzed using a 4-parameter logistic model to calculate IC50 values.

[2] = tested on: Phosphorylation of ERK1/2 in MIA PaCa-2 cells; test: Phospho-ERK1/2 MSD Assay; format: cell-based; conditions: MiaPaCa-2 cells
[3] = tested on: Phosphorylation of ERK1/2 in A549 cells; test: Phospho-ERK1/2 MSD Assay (A549); format: cell-based
[4] = read-out: Coupled Exchange IC50 (2 h), 2 h compound pre-incubation
[5] = Homo sapiens, MIA PaCa-2, read-out: pERK IC50 (4 h), 4 h compound treatment
[6] = Homo sapiens, read-out: pERK IC50 (4 h), 4 h compound treatment
[7] = read-out: Coupled Exchange IC50 (20 h), 20 h compound pre-incubation
[8] = Homo sapiens, MIA PaCa-2, 4 h, read-out: pERK IC50 (4 h, MiaPaCa-2), 4 h compound treatment
[9] = Homo sapiens, A549, 4 h, read-out: pERK IC50 (4 h, A549), 4 h compound treatment
[10] = read-out: Coupled Exchange IC50 (5 min), 5 min compound pre-incubation
[11] = read-out: pERK IC50 (4 h, MiaPaCa-2), 4 h compound treatment
[12] = read-out: pERK IC50 (4 h, A549), 4 h compound treatment

Chain of GDP-bound KRAS protein (aa 1-169), containing both G12C and C118A amino acid substitutions (P01116 other isoform, or with tags, fused parts or gaps G12C/C118A): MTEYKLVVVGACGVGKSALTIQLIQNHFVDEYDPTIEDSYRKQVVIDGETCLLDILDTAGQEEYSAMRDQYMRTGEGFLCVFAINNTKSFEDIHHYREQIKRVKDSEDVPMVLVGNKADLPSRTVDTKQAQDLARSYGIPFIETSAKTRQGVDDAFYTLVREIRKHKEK

Compound	IC50 [1, 4] [µM]	IC50 [2, 5] [µM]	IC50 [3, 6] [µM]	IC50 [1, 7] [µM]	IC50 [2, 8] [µM]	IC50 [3, 9] [µM]	IC50 [1, 10] [µM]	IC50 [2, 11] [µM]	IC50 [3, 12] [µM]
C=CC(=O)N1CC(NC(=O)Cn2c(C)c(-c3ccccc3OC(C)C)c3cc(Cl)ccc32)C1 [Example 113]	0.9	26.2	> 100						
C=CC(=O)N1CC(NC(=O)Cn2cc(C(=O)NCC(CC)Oc3cccc(Cl)c3)c3cc(Br)ccc32)C1 (stereo not shown) [Example 152]	1.8			0.47	51.6	68.8			
C=CC(=O)N1CC(NC(=O)Cn2c(C)c(C(=O)N3CCc4c(cccc4OC)C3)c3cc(C)cc(C)c32)C1 [Example 6]	0.34				1.12	> 100			
C=CC(=O)N1CC(NC(=O)Cn2c(C)c(C(=O)N3Cc4ccccc4CC3C)c3cc(Br)cc(C)c32)C1 (stereo not shown) [Example 39]	0.33				3.35	60.3			
C=CC(=O)N1CC(NC(=O)Cn2c(C)c(-c3cncnc3C3CC3)c3cc(Cl)ccc32)C1 [Example 30]	2.32	2.68	> 100						
C=CC(=O)N1CC(NC(=O)Cn2cc(Br)c3cc(Cl)cc(C)c32)C1 [Example 91]	3.18	16.3	> 100	0.37					
C=CC(=O)N1CC(NC(=O)Cn2c3ccc(Br)cc3c3ccc(Oc4ccccn4)nc32)C1 [Example 57]	0.99	6.81	> 100	0.14					
C=CC(=O)N1CC(NC(=O)Cn2c(C)c(C(=O)N3CCc4c(O)cccc4C3)c3cc(Br)ccc32)C1 [Example 58]	0.28			0.11	6.81	> 33.3			
C=CC(=O)N1CC(NC(=O)Cn2c(C)c(-c3ccccc3-c3ccccc3)c3cc(Cl)ccc32)C1 [Example 67]	0.83	8.8	> 100	0.24			3.9		
C=CC(=O)N1CC(NC(=O)Cn2c(C)c(-c3cnccc3C(C)C)c3cc(Cl)ccc32)C1 [Example 5-1, 2-(5-Chloro-2-methyl-3-(4-(2-propanyl)-3-pyridinyl)-1H-indol-1-yl)-N-(1-(2-propenoyl)-3-azetidinyl)acetamide]	0.78	1.32	> 100						
C=CC(=O)N1CC(N(C)C(=O)Cn2c(C)c(C(=O)N3CCN(c4ccc(C)cn4)CC3)c3cc(Cl)cc(C)c32)C1 [Example 53]	0.85			0.18	5	> 100			
C=CC(=O)N1CC(NC(=O)Cn2cc(C(=O)N3CCc4ccc(C)cc4C3)c3cc(Br)ccc32)C1 [Example 122]	0.69			0.17	31.4	> 100			
C=CC(=O)N1CC(NC(=O)Cn2c(C(=O)NCc3ccccc3CN(C)C)cc3cc(Br)ccc32)C1 [Example 88]	3.26	14.9	> 100	0.72					
C=CC(=O)N1CC(NC(=O)Cn2cc(C3CC3)c3cc(Br)ccc32)C1 [Example 132]	9.52	37.9	> 100	1.71					
C=CC(=O)N1CC(NC(=O)Cn2c(C)c(C(=O)N3CCc4ccccc4[C@H]3C)c3cc(Br)cc(C)c32)C1 [Example 2-2-1, 2-(5-Bromo-2,7-dimethyl-3-(((1R)-1-methyl-3,4-dihydro-2(1H)-isoquinolinyl)carbonyl)-1H-indol-1-yl)-N-(1-(2-propenoyl)-3-azetidinyl)acetamide]	0.16							0.56	47
C=CC(=O)N1CC(NC(=O)Cn2c(C)c(C(=O)N3CCc4ccccc4C3CC)c3cc(Br)cc(C)c32)C1 (stereo not shown) [Example 59]	0.81				6.84	45.9			
C=CC(=O)N1CC(NC(=O)Cn2cc(-c3c(C)ccc4[nH]ncc34)c3cc(Cl)ccc32)C1 [Example 142]	3.71	44.1	> 100	0.83					

Compound	IC50 [1, 4] [µM]	IC50 [2, 5] [µM]	IC50 [3, 6] [µM]	IC50 [1, 7] [µM]	IC50 [2, 8] [µM]	IC50 [3, 9] [µM]	IC50 [1, 10] [µM]	IC50 [2, 11] [µM]	IC50 [3, 12] [µM]
C=CC(=O)N1CC(NC(=O)Cn2c(C(=O)NCc3ccccc3)cc3cc(Br)ccc32)C1 [Example 164]	10.7	> 100	> 100	1.11					
C=CC(=O)N1CC(N(C)C(=O)Cn2c(C3CC3)c(C(=O)N3CCc4c(cccc4OC)C3)c3cc(Cl)cc(C)c32)C1 [Example 4-3, 2-(5-Chloro-2-cyclopropyl-3-((5-methoxy-3,4-dihydro-2(1H)-isoquinolinyl)carbonyl)-7-methyl-1H-indol-1-yl)-N-methyl-N-(1-(2-propenoyl)-3-azetidinyl)acetamide]	0.12				0.15	74.1			
C=CC(=O)N1CC(NC(=O)Cn2c(C)c(-c3ccccc3Cc3ccccc3)c3cc(Cl)ccc32)C1 [Example 56]	0.88	6.17	> 100				4.77		
C=CC(=O)N1CC(N(C)C(=O)Cn2cc(I)c3cc(Br)ccc32)C1 [Example 43]	4.65	3.82	> 33.3	0.44			36.6		
C=CC(=O)N1CC(NC(=O)Cn2cc(C(=O)N3CCc4c(ccnc4OC)C3)c3c(Cl)c(Cl)ccc32)C1 [Example 15]	0.22				1.79	> 100			
C=CC(=O)N1CC(NC(=O)Cn2cc(C(=O)NCCc3nc(C)c(C)s3)c3cc(Br)ccc32)C1 [Example 176]	2.8			0.6	> 100	> 100			
C=CC(=O)N1CC(N(C)C(=O)Cn2c(C)c(C(=O)N3CCN(c4ccc(C#N)cn4)C[C@@H]3C)c3cc(Br)ccc32)C1 [Example 52]	0.53				4.83	> 100			
C=CC(=O)N1CC(NC(=O)Cn2c3c(c4cc([N+](=O)[O-])ccc42)CCCCC3)C1 [Example 135]	4.25			0.63				38.7	> 100
C=CC(=O)N1CC(NC(=O)Cn2c3c(c4cc(Br)ccc42)CC(c2ccccc2)CC3)C1 (stereo not shown) [Example 133]	7.06	37.9	> 100	1.33					
C=CC(=O)N1CC(NC(=O)Cn2cc(I)c3cc(Br)ccc32)C1 [Example 85]	3.84	14	> 100	0.49			23.6		
C=CC(=O)N1CC(NC(=O)Cn2c(C)c(-c3ccccc3N3CCOCC3)c3cc(Cl)ccc32)C1 [Example 49]	0.72	4.67	7.68						
C=CC(=O)N1CC(NC(=O)Cn2c(C)c(-c3ccccc3C)c3cc(Cl)ccc32)C1 [Example 121]	1.57	31.2	> 100	0.42			12.4		
C=CC(=O)N1CC(NC(=O)Cn2cc(I)c3cc([N+](=O)[O-])ccc32)C1 [Example 128]	7.24	35.6	> 100	1.18			> 250		
C=CC(=O)N1CC(NC(=O)Cn2cc(-c3ccccc3-c3ccccc3)c3cc(Cl)ccc32)C1 [Example 112]	2.36	25.9	> 100	0.71			3.95		
C=CC(=O)N1CC(NC(=O)Cn2cc(C(=O)N(C)CC(=O)Nc3ccc(Cl)c(C(F)(F)F)c3)c3cc(Br)ccc32)C1 [Example 158]	0.44			0.16	53.9	> 100			
C=CC(=O)N1CC(NC(=O)Cn2cc(-c3ccccc3C(C)C)c3cc(Br)cc(C)c32)C1 [Example 119]	1.71	30.6	> 100	0.39					
